Assay results as given in ChEMBL document CHEMBL5614376, “Discovery of MT-1207: A Novel, Potent Multitarget Inhibitor as a Promising Clinical Candidate for the Treatment of Hypertension” (J Med Chem, 2024).
Calls of active or inactive are those of the source. The rule behind the calls is not given here.

Columns and labels:
Rattus norvegicus [1] = assay: Antihypertensive activity in 2K2C renovascular hypertensive Sprague-Dawley rat model assessed as decrease in diastolic blood pressure at 10 mg/kg, po measured after 9 weeks; format: functional, organism-based
Rattus norvegicus [2] = assay: Effect on postural hypotension in Sprague-Dawley rat assessed as change in systolic blood pressure at 5 mg/kg, po treated for >30 mins followed by induction of postural hypotension measured 3 secs after postural change (reference value: 124 +/- 10 mmHg); format: functional; settings: time > 30.05 min, 0.5008 h
Rattus norvegicus [3] = assay: Effect on postural hypotension in Sprague-Dawley rat assessed as change in systolic blood pressure at 10 mg/kg, po treated for >30 mins followed by induction of postural hypotension measured 60 secs after postural change (reference value: 127 +/- 10 mmHg); format: functional; settings: time > 31 min
Rattus norvegicus [4] = assay: Effect on postural hypotension in Sprague-Dawley rat assessed as change in systolic blood pressure at 5 mg/kg, po treated for >30 mins followed by induction of postural hypotension measured 5 secs after postural change (reference value: 126 +/- 12 mmHg); format: functional; settings: time > 30.08 min, 0.5013 h
[5] = AUC (0 to t) in male Sprague-Dawley rat at 100 mg/kg, po measured on day 1 by UP/LC/MS/MS analysis; format: ADME, organism-based; settings: in vivo, time 1 day
[6] = AUC (0 to t) in male Sprague-Dawley rat at 30 mg/kg, po qd treated for 13 weeks consecutively measured after recovery period on day 91 by UP/LC/MS/MS analysis; format: ADME, organism-based; settings: in vivo, time 91 day
[7] = Apparent oral clearance in Sprague-Dawley rat at 1 mg/kg, iv measured for 24 hrs by UPLC/MS/MS analysis; format: ADME, organism-based; settings: in vivo
Rattus norvegicus [8] = assay: Effect on postural hypotension in Sprague-Dawley rat assessed as change in systolic blood pressure at 10 mg/kg, po treated for >30 mins followed by induction of postural hypotension measured 3 secs after postural change (reference value: 124 +/- 10 mmHg); format: functional; settings: time > 30.05 min, 0.5008 h
[9] = Cmax in male Sprague-Dawley rat at 10 mg/kg, po qd treated for 13 weeks consecutively measured after recovery period on day 91 by UP/LC/MS/MS analysis; format: ADME, organism-based; settings: in vivo, time 91 day
[10] = Metabolic stability in macaque plasma assessed as enzymatic hydrolysis at 50 to 10000 ng/ml incubated upto 120 mins; format: ADME, cell-free; settings: macaca, 2 h, dose 50-10000 ng/ml
[11] = Cmax in Sprague-Dawley rat at 3 mg/kg, po measured for 24 hrs by UPLC/MS/MS analysis; format: ADME, organism-based; settings: in vivo
Rattus norvegicus [12] = assay: Effect on heart rate in 2K2C renovascular hypertensive Sprague-Dawley rat model at 10 mg/kg, po measured after 9 weeks; format: functional, organism-based
[13] = Cmax in male Sprague-Dawley rat at 100 mg/kg, po measured on day 1 by UP/LC/MS/MS analysis; format: ADME, organism-based; settings: in vivo, time 1 day
[14] = Acute toxicity in Sprague-Dawley rat assessed as change in body weight at 250 to 1000 mg/kg, po single administration measured for 14 days; format: organism-based; settings: in vivo, 336 h, dose 250-1000 mg/kg, time 14 day
[15] = Acute toxicity in Sprague-Dawley rat assessed as unscheduled animal fatality at 250 to 1000 mg/kg, po single administration measured for 14 days; format: organism-based; settings: in vivo, 336 h, dose 250-1000 mg/kg, time 14 day
[16] = Acute toxicity in Sprague-Dawley rat assessed as change in morphology of animal at 250 to 1000 mg/kg, po single administration measured for 14 days; format: organism-based; settings: in vivo, 336 h, dose 250-1000 mg/kg, time 14 day
[17] = Metabolic stability in rat liver microsomes assessed as drug elimination at 10 umol/L incubated for 5 mins in presence of NADPH by LC-MS/MS analysis; format: ADME, Microsome; settings: 10 µM, dose 10 µmol/L
[18] = Tmax in male Sprague-Dawley rat at 10 mg/kg, po measured on day 1 by UP/LC/MS/MS analysis; format: ADME, organism-based; settings: in vivo, time 1 day
Rattus norvegicus [19] = assay: Effect on postural hypotension in Sprague-Dawley rat assessed as change in systolic blood pressure at 2.5 mg/kg, po treated for >30 mins followed by induction of postural hypotension measured immediately after postural change (reference value: 131 +/- 9 mmHg); format: functional; settings: 0.5 h
Rattus norvegicus [20] = assay: Effect on postural hypotension in Sprague-Dawley rat assessed as change in systolic blood pressure at 10 mg/kg, po treated for >30 mins followed by induction of postural hypotension measured 10 secs after postural change (reference value: 127 +/- 12 mmHg); format: functional; settings: time > 30.17 min, 0.5028 h
[21] = Apparent oral clearance in Sprague-Dawley rat at 1 mg/kg, po measured for 24 hrs by UPLC/MS/MS analysis; format: ADME, organism-based; settings: in vivo
[22] = Tmax in Sprague-Dawley rat at 1 mg/kg, po measured for 24 hrs by UPLC/MS/MS analysis; format: ADME, organism-based; settings: in vivo
[23] = Half life in Sprague-Dawley rat at 3 mg/kg, po measured for 24 hrs by UPLC/MS/MS analysis; format: ADME, organism-based; settings: in vivo
[24] = Tmax in Sprague-Dawley rat at 1 mg/kg, iv measured for 24 hrs by UPLC/MS/MS analysis; format: ADME, organism-based; settings: in vivo
[25] = Plasma protein binding in Cynomolgus monkey at 10 uM incubated for 30 mins; format: ADME, cell-free, Macaca fascicularis; settings: read-out: PPB (converted)
[26] = Apparent volume of distribution during terminal phase in Sprague-Dawley rat at 3 mg/kg, po measured for 24 hrs by UPLC/MS/MS analysis; format: ADME, organism-based; settings: in vivo, read-out: Vz/F
[27] = Apparent volume of distribution during terminal phase in Sprague-Dawley rat at 1 mg/kg, po measured for 24 hrs by UPLC/MS/MS analysis; format: ADME, organism-based; settings: in vivo, read-out: Vz/F
Rattus norvegicus [28] = assay: Effect on postural hypotension in Sprague-Dawley rat assessed as change in systolic blood pressure at 2.5 mg/kg, po treated for >30 mins followed by induction of postural hypotension measured 40 secs after postural change (reference value: 128 +/- 11 mmHg); format: functional; settings: time > 30.67 min, 0.5112 h
Rattus norvegicus [29] = assay: Effect on postural hypotension in Sprague-Dawley rat assessed as change in systolic blood pressure at 2.5 mg/kg, po treated for >30 mins followed by induction of postural hypotension measured 3 secs after postural change (reference value: 124 +/- 10 mmHg); format: functional; settings: time > 30.05 min, 0.5008 h
[30] = Tmax in female Sprague-Dawley rat at 100 mg/kg, po measured on day 1 by UP/LC/MS/MS analysis; format: ADME, organism-based; settings: in vivo, time 1 day
[31] = Metabolic stability in human liver microsomes assessed as drug elimination at 10 umol/L incubated for 5 mins in presence of NADPH by LC-MS/MS analysis; format: ADME, Microsome; settings: 10 µM, dose 10 µmol/L
[32] = Toxicity in Sprague-Dawley rat at 10 to 100 mg/kg, po qd treated for 13 weeks; format: organism-based; settings: in vivo, dose 10-100 mg/kg
[33] = Half life in Sprague-Dawley rat at 1 mg/kg, po measured for 24 hrs by UPLC/MS/MS analysis; format: ADME, organism-based; settings: in vivo
[34] = Metabolic stability in human liver microsomes assessed as drug metabolism at 10 umol/L incubated upto 120 mins in presence of NADPH by LC-MS/MS analysis; format: ADME, Microsome; settings: 2 h, 10 µM, dose 10 µmol/L
Rattus norvegicus [35] = assay: Effect on postural hypotension in Sprague-Dawley rat assessed as change in systolic blood pressure at 10 mg/kg, po treated for >30 mins followed by induction of postural hypotension measured 40 secs after postural change (reference value: 128 +/- 11 mmHg); format: functional; settings: time > 30.67 min, 0.5112 h

Question: For Cl.c1ccc2c(c1)nnn2CCCCN1CCN(c2nsc3ccccc23)CC1, which Activity (Rattus norvegicus [1]) is on record?
Answer: The Activity was “Active”.

Question: And the Activity (Rattus norvegicus [2])?
Answer: Its Activity is 80 mmHg.

Question: And the Activity (Rattus norvegicus [3])?
Answer: The Activity was 85 mmHg.

Question: And the Activity (Rattus norvegicus [4])?
Answer: Its Activity is 79 mmHg.

Question: And the AUC(0-t) at 24 h [5]?
Answer: The AUC(0-t) at 24 h was 1460 ng·h/mL.

Question: And the AUC(0-t) at 2184 h [6]?
Answer: The AUC(0-t) at 2184 h was 672 ng·h/mL.

Question: And the CL/F [7]?
Answer: Its CL/F is 25 L/h.

Question: What about the Activity (Rattus norvegicus [8]) of the same compound?
Answer: Its Activity is 81 mmHg.

Question: What about the Cmax [9] of the same compound?
Answer: The Cmax was 36.2 ng/mL.

Question: And the Stability [10]?
Answer: The Stability was “Stable”.

Question: What about the Cmax [11] of the same compound?
Answer: Its Cmax is 85.7 ng/mL.

Question: And the Activity (Rattus norvegicus [12])?
Answer: The Activity was “Active”.

Question: What about the Cmax [13] of the same compound?
Answer: The Cmax was 347 ng/mL.

Question: And the Activity [14]?
Answer: The Activity was “Non-Toxic”.

Question: What about the Activity [15] of the same compound?
Answer: Its Activity is “Non-Toxic”.

Question: What about the Activity [16] of the same compound?
Answer: The Activity was “Non-Toxic”.

Question: What about the Drug excretion [17] of the same compound?
Answer: The Drug excretion was “Active”.

Question: And the Tmax [18]?
Answer: The Tmax was 1 h.

Question: What about the Activity (Rattus norvegicus [19]) of the same compound?
Answer: Its Activity is 96 mmHg.

Question: And the Activity (Rattus norvegicus [20])?
Answer: Its Activity is 84 mmHg.

Question: And the CL/F [21]?
Answer: The CL/F was 388 mL/min.

Question: What about the Tmax [22] of the same compound?
Answer: Its Tmax is 9.6 min.

Question: And the half-life [23]?
Answer: The half-life was 2.15 h.

Question: And the Tmax [24]?
Answer: Its Tmax is 0.25 h.

Question: And the fraction unbound at 0.5 h, 10 µM [25]?
Answer: The fraction unbound at 0.5 h, 10 µM was 0.005.

Question: What about the Vd/F [26] of the same compound?
Answer: Its Vd/F is 22.4 L.

Question: What about the Vd/F [27] of the same compound?
Answer: Its Vd/F is 51.5 L.

Question: What about the Activity (Rattus norvegicus [28]) of the same compound?
Answer: The Activity was 92 mmHg.

Question: And the Activity (Rattus norvegicus [29])?
Answer: The Activity was 90 mmHg.

Question: What about the Tmax [30] of the same compound?
Answer: Its Tmax is 2 h.

Question: What about the Drug excretion [31] of the same compound?
Answer: Its Drug excretion is “Active”.

Question: What about the NOAEL at 2184 h [32] of the same compound?
Answer: Its NOAEL at 2184 h is 100 mg/kg.

Question: What about the half-life [33] of the same compound?
Answer: The half-life was 1.5 h.

Question: What about the Drug metabolism [34] of the same compound?
Answer: The Drug metabolism was “Metabolite_Detected”.

Question: And the Activity (Rattus norvegicus [35])?
Answer: Its Activity is 85 mmHg.
